Values of other authors as cited in US9585850B2, “Methods of treatment using arylcyclopropylamine compounds” (Duke University, priority 2011, dated 2017).

Test system: DDD mice
Conditions: Sotnikova et al.

## N[C@@H](Cc1ccc(O)c(O)c1)C(=O)O [L-DOPA, L-3,4-dihydroxyphenylalanine]
  restoration of locomotion / treatment of akinesia in DDD mice: fully restored locomotion

## CN1CCc2cccc3c2[C@H]1Cc1ccc(O)c(O)c1-3 [apomorphine]
  restoration of locomotion / treatment of akinesia in DDD mice: effective in treating akinesia

## CCCN1C[C@H](CSC)C[C@@H]2c3cccc4[nH]cc(c34)C[C@H]21 [pergolide]
  restoration of locomotion / treatment of akinesia in DDD mice: effective in treating akinesia
